± gives the expanded uncertainty stated by the source.
Experiment: mn = molality of the nth substance listed, in mol/kg
Details: 87 kPa, Liquid, Vibrating tube method

CCn1cc[n+](C)c1.[Cl-] [1-ethyl-3-methylimidazolium chloride] + O
mass density [kg/m3]
Details | m1 = 0.0532 | m1 = 0.1024 | m1 = 0.1528 | m1 = 0.2049 | m1 = 0.2529 | m1 = 0.3082 | m1 = 0.3571 | m1 = 0.4077 | m1 = 0.459 | m1 = 0.5026
293.15 K | 998.82 ± 1 | 999.41 ± 1 | 1000.01 ± 1 | 1000.63 ± 1 | 1001.2 ± 1 | 1001.84 ± 1 | 1002.41 ± 1 | 1002.99 ± 1 | 1003.56 ± 1 | 1004.05 ± 1
298.15 K | 997.66 ± 1 | 998.23 ± 1 | 998.82 ± 1 | 999.43 ± 1 | 999.98 ± 1 | 1000.61 ± 1 | 1001.17 ± 1 | 1001.73 ± 1 | 1002.29 ± 1 | 1002.77 ± 1
303.15 K | 996.25 ± 1 | 996.81 ± 1 | 997.39 ± 1 | 997.98 ± 1 | 998.52 ± 1 | 999.14 ± 1 | 999.68 ± 1 | 1000.24 ± 1 | 1000.79 ± 1 | 1001.26 ± 1
308.15 K | 994.62 ± 1 | 995.17 ± 1 | 995.74 ± 1 | 996.32 ± 1 | 996.85 ± 1 | 997.46 ± 1 | 997.99 ± 1 | 998.53 ± 1 | 999.08 ± 1 | 999.54 ± 1
313.15 K | 992.79 ± 1 | 993.34 ± 1 | 993.9 ± 1 | 994.48 ± 1 | 995.01 ± 1 | 995.61 ± 1 | 996.13 ± 1 | 996.67 ± 1 | 997.21 ± 1 | 997.67 ± 1

CCn1cc[n+](C)c1.O=S(=O)([O-])O [1-ethyl-3-methylimidazolium hydrogen sulfate] + O
mass density [kg/m3]
Details | m1 = 0.0528 | m1 = 0.1003 | m1 = 0.1503 | m1 = 0.2034 | m1 = 0.253 | m1 = 0.303 | m1 = 0.3548 | m1 = 0.4046 | m1 = 0.453 | m1 = 0.5055
293.15 K | 1000.86 ± 1 | 1003.08 ± 1 | 1005.3 ± 1 | 1007.57 ± 1 | 1009.63 ± 1 | 1011.67 ± 1 | 1013.72 ± 1 | 1015.68 ± 1 | 1017.53 ± 1 | 1019.54 ± 1
298.15 K | 999.65 ± 1 | 1001.82 ± 1 | 1003.99 ± 1 | 1006.22 ± 1 | 1008.23 ± 1 | 1010.23 ± 1 | 1012.24 ± 1 | 1014.17 ± 1 | 1016 ± 1 | 1017.98 ± 1
303.15 K | 998.2 ± 1 | 1000.33 ± 1 | 1002.46 ± 1 | 1004.64 ± 1 | 1006.63 ± 1 | 1008.6 ± 1 | 1010.58 ± 1 | 1012.47 ± 1 | 1014.26 ± 1 | 1016.21 ± 1
308.15 K | 996.54 ± 1 | 998.63 ± 1 | 1000.73 ± 1 | 1002.87 ± 1 | 1004.82 ± 1 | 1006.76 ± 1 | 1008.7 ± 1 | 1010.58 ± 1 | 1012.34 ± 1 | 1014.25 ± 1
313.15 K | 994.68 ± 1 | 996.73 ± 1 | 998.8 ± 1 | 1000.91 ± 1 | 1002.83 ± 1 | 1004.74 ± 1 | 1006.66 ± 1 | 1008.5 ± 1 | 1010.24 ± 1 | 1012.13 ± 1
